# Assay results: patent US20230165242A1, “RODENTICIDAL BAIT AND METHOD OF CONTROLLING TARGET HARMFUL RODENTS” (priority 2020, published 2023)
# What was measured:
# Type in all cases: in vivo, rat
# [1] = test system: rats that are homozygotic carriers of the L120Q mutation; test: Relative toxicity of cholecalciferol, single gavage dose, L120Q rats; conditions: single gavage dose 30 mg/kg; 20 days
# Text: Warfarin-sensitive Sprague-Dawley rats (20 male rats and 20 female rats), male and female rats that are homozygotic carriers of the L120Q mutation, male and female Sprague-Dawley rats that are homozygotic carriers of the Y139F mutation and male and female brown rats (Rattus norvegicus) that are homozygotic carriers of the Y1 39C mutation are acclimatized for 5 days in the presence of a conventional solid feed and water in unlimited amounts. The rats are fed by gavage with a single dose of a gavage solution containing cholecalciferol (Sigma-Aldrich, France) in a solvent consisting of 95% (v/v) of oil and 5% (v/v) of DMSO. The rats are fed with a conventional solid feed and water in unlimited amounts. The amount of cholecalciferol administered is 30 mg of cholecalciferol per kilogram of body weight of the rat fed by gavage. The percentage of rats surviving gavage for 20 days, counting from the first day of gavage, is noted daily. The results given in Table 4 hereunder describe the mortality observed (“SD”, Sprague-Dawley). The amount of cholecalciferol ingested by the rodents during gavage corresponds to consumption by these rodents of a bait assayed at 300 ppm of cholecalciferol.
# [2] = test system: warfarin-sensitive male OFA-Sprague-Dawley rats; test: Synergy of bromadiolone and cholecalciferol, gavage, survival; conditions: gavage 5 consecutive days; bromadiolone 0.1 mg/kg alone, cholecalciferol 7.5 mg/kg alone, or both combined; after 20 days of observation
# Text: A group of 10 warfarin-sensitive male OFA-Sprague-Dawley rats (Charles River, L′Arbresles, France), aged 10 weeks and with a body weight between 160 and 180 g, are fed by gavage for 5 consecutive days with a gavage solution containing bromadiolone (LIPHATECH, France) and cholecalciferol (Sigma-Aldrich, France) in a solvent consisting of 95% (v/v) of oil and 5% (v/v) of DMSO. During this period of gavage, the rats are fed with a conventional solid feed and water in unlimited amounts. The rats are fed by gavage with a volume of this gavage solution so as to administer an amount of bromadiolone corresponding to 0.1 mg of bromadiolone per kilogram of body weight of the rat fed by gavage and an amount of cholecalciferol corresponding to 7.5 mg of cholecalciferol per kilogram of body weight of the rat fed by gavage. The rats in two control groups, each consisting of 10 male OFA-Sprague-Dawley rats, are fed by gavage in the same conditions with gavage solutions containing, respectively, bromadiolone alone so as to administer an amount of bromadiolone corresponding to 0.1 mg of bromadiolone per kilogram of body weight of the rat fed by gavage and cholecalciferol alone so as to administer an amount of cholecalciferol corresponding to 7.5 mg of cholecalciferol per kilogram of body weight of the rat fed by gavage. […]
# [3] = test system: Female Sprague-Dawley rats that are homozygotic carriers of the Y139F mutation in the Vkorc1 gene; test: Synergy of difethialone and cholecalciferol on warfarin-resistant female Sprague-Dawley Y139F rats; conditions: gavage once a day for 3 days; difethialone 0.125 mg/kg alone, cholecalciferol 7.5 mg/kg alone, or both combined; 22 days of observation
# Text: Female Sprague-Dawley rats that are homozygotic carriers of the Y139F mutation in the Vkorc1 gene, aged 10 weeks, are acclimatized for 5 days in the presence of a conventional solid feed and water in unlimited amounts. These female Sprague-Dawley Y139F rats are fed by gavage once a day for 3 consecutive days with a gavage solution containing difethialone (LIPHATECH, France) and cholecalciferol (Sigma-Aldrich, France) in a solvent consisting of 95% (v/v) of oil and 5% (v/v) of DMSO. During this period of gavage, the rats are fed with a conventional solid feed and water in unlimited amounts. The amounts of difethialone and cholecalciferol administered are 0.125 mg per kilogram of body weight of the rat fed by gavage and 7.5 mg per kilogram of body weight of the rat fed by gavage, respectively. The rats in two control groups, each consisting of OFA-Sprague-Dawley […] rats, are fed by gavage in the same conditions with gavage solutions containing, respectively, difethialone alone so as to administer an amount of difethialone corresponding to 0.125 mg per kilogram of body weight of the rat fed by gavage and cholecalciferol alone so as to administer an amount of cholecalciferol corresponding to 7.5 mg per kilogram of body weight of the rat fed by gavage. The percentage of rats surviving gavage is noted daily for 21 days counting from the first day of gavage. […]
structure (smiles),measurement,setting,value
C=C1CC[C@H](O)C/C1=C/C=C1\CCC[C@]2(C)[C@@H]([C@H](C)CCCC(C)C)CC[C@@H]12 [cholecalciferol],"Female mortality, %",[1],5%
same,"Male mortality, %",[1],15%
same,percentage of rats surviving,[2],70%
same,percentage of rats surviving,[3],90%
